Laboratory results as given in patent US20090302265A1, “Supercooling promoting agent” (priority 2006, published 2009).

Experiments:
[1] = test system: dead bacterial cells of ice nucleation active bacteria (Erwinia ananas); assay: supercooling activity (droplet freezing on cooled copper plate, temperature at which 50% of droplets are frozen); format: physicochemical; settings: cooling 0.2° C./min; for supercooling activity (difference of freezing point vs buffer with ice nucleation bacteria only): 0.5 mg/mL test sample, 50 mM potassium phosphate buffer pH 7.0, 2 μL droplets; for supercooling activity: 0.1 mg/mL test compound, otherwise as example 1
Procedure: The supercooling activity (or represented as inhibiting activity of ice nucleus formation) is the value measured by the following method. […] A large number of 2 μL droplets of the solution are put on a cupper plate, which is temperature-controllable. Then, the cupper plate is cooled at the rate of 0.2° C./min, the number of frozen droplets are counted macroscopically and the temperature, wherein 50% of droplets are frozen, is defined as freezing point. The supercooling activity is defined as the difference (° C.) between the freezing point of solution containing test sample and ice nucleation active bacteria, and that of solution containing only ice nucleation bacteria and buffer solution.
The supercooling activities of these samples were measured by the following methods. After a buffer solution (50 mM potassium phosphate buffer, pH 7.0) containing dead bacterial cells (Wako pure chemical industries Ltd.,) of ice nucleation active bacteria (Erwinia ananas) mixed with 0.5 mg/mL of a test sample, 2 μL droplets of the solution are put on a cupper plate, which is temperature-controllable. Then, the cupper plate is cooled at the rate of 0.2° C./min, the number of frozen droplets are counted macroscopically and the temperature, wherein 50% of droplets are frozen, is defined as freezing point. The difference (° C.) between the freezing point and that of the buffer solution was measured.

pig liver cells = assay: viability of pig liver cells after supercooled storage (trypan blue staining); format: cell-based; settings: 0.01% by weight in UW liquid with 1% by volume DMSO; −5° C. and −8° C.; 1, 4 and 7 days; FIG. 8
Procedure: The storage liquid was prepared by adding 0.01% by weight of kaempferol-7-glucoside (compound 2 (Cj5)), Extrasynthese Co.) and 1% by volume of DMSO (Wako pure chemical industries Ltd., guaranteed reagent) to a buffer solution (UW liquid, 100 mM lactobionic acid, 25 mM KH2PO4, 5 mM MgSO4, 30 mM raffinose, 2.5 mM adenosine, 3 mM GSH, 1 mM allopurinol, 0.25 mg/mL streptomycin, 10 UI/mL penicillin).
For comparison, a mixed solution (UW liquid) without kaempferol-7-O-glucoside and DMSO was prepared.
The viability of cells was evaluated by trypan blue (GIBCO) staining, when pig liver cells 5×10^6 cells/mL were dipped in 0.5 cc of the above storage liquid, supercooled at −5° C. and at −8° C., and stored for 1, 4 and 7 days.

[2] = test system: cranberry shoot apexes (buds); assay: survival of cranberry shoot apexes after vitrification in liquid nitrogen and thawing; settings: 0.05% by weight in 75% vitrification liquid (75% PVS2); liquid nitrogen overnight, thawed at room temperature; FIG. 9A vs 9B
Procedure: As a vitrification liquid, 75% dilution solution of PVS2 liquid (22.5% by volume glycerol, 11.25% by volume of ethyleneglycol, 11.25% by volume of DMSO, […], the remainder was Murashige & Skoog medium, DUCHEFA BIOCHEMIE BV) supplemented with 0.05% by weight of kaempferol-7-O-glucoside (compound 2, Extrasynthese Co.) was used (hereinafter referred to as “75% vitrification liquid”).
For comparison, a mixed solution without kaempferol-7-O-glucoside was prepared. Shoot apexes (buds) are isolated from cranberry (subcultured in Hokkaido University, Graduate School of Agriculture) and dipped in the above mixed solution at room temperature.
On the other hand, survival of shoot apexes, which were dipped in 75% vitrification liquid containing kaempferol-7-O-glucoside at room temperature for a specified loading time, put into liquid nitrogen, frozen for overnight, and then thawed at room temperature, is shown in frozen batch of FIG. 9A. Similarly, survival of the apexes, which were dipped in a vitrification liquid without kaempferol-7-O-glucoside and frozen, is shown in frozen batch of FIG. 9B.

supercooling activity [1]	Structure (SMILES)	supercooling activity (difference of freezing point vs buffer with ice nucleation bacteria only) [1]	other results
−4.5 °C	O=c1cc(-c2ccccc2)oc2cc(O[C@@H]3O[C@H](CO)[C@@H](O)[C@H](O)[C@H]3O)cc(O)c12 [compound 5, Chrycin-7-O-β-D-glucopyranoside]	–	–
−12.0 °C	O=c1cc(-c2ccc(O)cc2)oc2cc(O[C@@H]3O[C@H](CO)[C@@H](O)[C@H](O)[C@H]3O)cc(O)c12 [compound 6, apigenin 7-O-β-D-glucopyranoside]	–	–
−4.9 °C	O=c1cc(-c2ccc(O[C@@H]3O[C@H](CO)[C@@H](O)[C@H](O)[C@H]3O)cc2)oc2cc(O[C@@H]3O[C@H](CO)[C@@H](O)[C@H](O)[C@H]3O)cc(O)c12 [compound 7, apigenin 4′, 7-di-O-β-D-glucopyranoside]	–	–
−1.8 °C	C[C@@H]1O[C@@H](O[C@H]2[C@H](Oc3cc(O)c4c(=O)cc(-c5ccc(O)cc5)oc4c3)O[C@H](CO)[C@@H](O)[C@@H]2O)[C@H](O)[C@H](O)[C@H]1O [compound 8, apigenin 7-O-β-neohesperidoside]	–	–

Further lines, the compound ahead of its results:

Structure (SMILES)	supercooling activity [1]	supercooling activity (difference of freezing point vs buffer with ice nucleation bacteria only) [1]	other results
O=c1c(OC2OC(CO)[C@@H](O)C(O)[C@H]2O)c(-c2ccc(O)c(O)c2)oc2cc(O)cc(O)c12 (stereo partly drawn) [compound 1, quercetin-3-O-β-glucoside]	–	−1.8 °C	–
O=c1c(O)c(-c2ccc(O)cc2)oc2cc(OC3OC(CO)[C@@H](O)C(O)[C@H]3O)cc(O)c12 (stereo partly drawn) [compound 2, kaempherol-7-O-β-glucoside]	–	−7.7 °C	viability of cells after supercooled storage (pig liver cells): enables storage of viable animal cells for long-term; survival of shoot apexes after freezing (damage due to freezing) [2]: significantly reduced the damage due to freezing
COc1c(O)cc(O)c2c(=O)c(OC3OC(CO)[C@@H](O)C(O)[C@H]3O)c(-c3ccc(O)cc3)oc12 (stereo partly drawn) [compound 3, 8-methoxykaempferol-3-O-β-glucoside]	–	−0.2 °C	–
O=c1c(OC2OC(CO)[C@@H](O)C(O)[C@H]2O)c(-c2ccc(O)cc2)oc2cc(O)cc(O)c12 (stereo partly drawn) [compound 4, kaempferol-3-O-β-glucoside]	–	−2.5 °C	–
